Reference: ChEMBL document CHEMBL3885861, “Open TG-GATES”

Species: Rattus norvegicus
Assay: Open TG-GATES - Regimen: Daily Repeat
Assay type: toxicity, organism-based, Sprague-Dawley
Design: regimen Daily Repeat, gender Male, age 6 weeks
Conditions: in vivo, po, 300 mg/kg, route gavage, dose level Middle; for APTT / Bas / Eos / Fbg / Hb / Ht / Lym / MCH / MCHC / MCV / Mono / Neu / PT / Plat / RBC / Ret / WBC: tissue Blood; for KIDNEY_L / KIDNEY_R / KIDNEY_TOTAL: tissue Kidney; for LIVER: tissue Liver; for A/G / ALP / ALT / AST / BUN / CRE / Ca / Cl / DBIL / GLC / IP / K / LDH / Na / PL / RALB / TBIL / TC / TG / TP / gamma-GTP: tissue Plasma

CC(C)(S)[C@@H](N)C(=O)O [PENICILLAMINE]
TERMINAL_BW (72 h, time 3 day): 235.2 g | APTT (72 h, time 3 day): 17.2 s | Bas (72 h, time 3 day): 0.4% | Eos (72 h, time 3 day): 1% | Fbg (72 h, time 3 day): 301.4 mg/dL | Hb (72 h, time 3 day): 13.7 g/dL | Ht (72 h, time 3 day): 42.2% | Lym (72 h, time 3 day): 79.2% | MCH (72 h, time 3 day): 20.9 pg | MCHC (72 h, time 3 day): 32.6% | MCV (72 h, time 3 day): 64.1 fL | Mono (72 h, time 3 day): 3.2% | Neu (72 h, time 3 day): 15.4% | PT (72 h, time 3 day): 14.1 s | Plat (72 h, time 3 day): 114.9 x10_4/uL | RBC (72 h, time 3 day): 658.6 x10_4/ul | Ret (72 h, time 3 day): 7.6% | WBC (72 h, time 3 day): 91.9 x10_2/uL | KIDNEY_L (72 h, time 3 day): 1 g | KIDNEY_R (72 h, time 3 day): 1 g | KIDNEY_TOTAL (72 h, time 3 day): 2 g | LIVER (72 h, time 3 day): 11.1 g | A/G (72 h, time 3 day): 0.9 | ALP (72 h, time 3 day): 1461.8 IU/L | ALT (72 h, time 3 day): 40.4 IU/L | AST (72 h, time 3 day): 66.2 IU/L | BUN (72 h, time 3 day): 14.4 mg/dL | CRE (72 h, time 3 day): 0.2 mg/dL | Ca (72 h, time 3 day): 11 mg/dL | Cl (72 h, time 3 day): 106.6 meq/L | DBIL (72 h, time 3 day): 0.012 mg/dL | GLC (72 h, time 3 day): 181.6 mg/dL | IP (72 h, time 3 day): 7.2 mg/dL | K (72 h, time 3 day): 4 meq/L | LDH (72 h, time 3 day): 102 IU/L | Na (72 h, time 3 day): 144.6 meq/L | PL (72 h, time 3 day): 159.2 mg/dL | RALB (72 h, time 3 day): 2.8 g/dL | TBIL (72 h, time 3 day): 0.028 mg/dL | TC (72 h, time 3 day): 81.2 mg/dL | TG (72 h, time 3 day): 102.8 mg/dL | TP (72 h, time 3 day): 5.8 g/dL | gamma-GTP (72 h, time 3 day): 1 IU/L | TERMINAL_BW ([…], time 7 day): 273.3 g | TERMINAL_BW ([…], time 14 day): 321.5 g | TERMINAL_BW ([…], time 28 day): 390 g | APTT ([…], time 7 day): 16.6 s | Bas ([…], time 7 day): 0% | Eos ([…], time 7 day): 1.4% | Fbg ([…], time 7 day): 377.6 mg/dL | Hb ([…], time 7 day): 13.4 g/dL | Ht ([…], time 7 day): 40.7% | Lym ([…], time 7 day): 75.4% | MCH ([…], time 7 day): 20.6 pg | MCHC ([…], time 7 day): 33.1% | MCV ([…], time 7 day): 62.4 fL | Mono ([…], time 7 day): 3.6% | Neu ([…], time 7 day): 18.8% | PT ([…], time 7 day): 14 s | Plat ([…], time 7 day): 122.4 x10_4/uL | RBC ([…], time 7 day): 652.2 x10_4/ul | Ret ([…], time 7 day): 5.9% | WBC ([…], time 7 day): 96 x10_2/uL | APTT ([…], time 14 day): 23.3 s | Bas ([…], time 14 day): 0.2% | Eos ([…], time 14 day): 1% | Fbg ([…], time 14 day): 375.6 mg/dL | Hb ([…], time 14 day): 14.7 g/dL | Ht ([…], time 14 day): 43.5% | Lym ([…], time 14 day): 81.2% | MCH ([…], time 14 day): 20.2 pg | MCHC ([…], time 14 day): 33.8% | MCV ([…], time 14 day): 59.8 fL | Mono ([…], time 14 day): 2.2% | Neu ([…], time 14 day): 15.2% | PT ([…], time 14 day): 14.3 s | Plat ([…], time 14 day): 133 x10_4/uL | RBC ([…], time 14 day): 727 x10_4/ul | Ret ([…], time 14 day): 5.2% | WBC ([…], time 14 day): 103.7 x10_2/uL | APTT ([…], time 28 day): 17.4 s | Bas ([…], time 28 day): 0.4% | Eos ([…], time 28 day): 1.2% | Fbg ([…], time 28 day): 485.2 mg/dL | Hb ([…], time 28 day): 14.4 g/dL | Ht ([…], time 28 day): 42.7% | Lym ([…], time 28 day): 78% | MCH ([…], time 28 day): 18.7 pg | MCHC ([…], time 28 day): 33.8% | MCV ([…], time 28 day): 55.4 fL | Mono ([…], time 28 day): 2.6% | Neu ([…], time 28 day): 17.2% | PT ([…], time 28 day): 14.7 s | Plat ([…], time 28 day): 132.7 x10_4/uL | RBC ([…], time 28 day): 770 x10_4/ul | Ret ([…], time 28 day): 3.1% | WBC ([…], time 28 day): 131.5 x10_2/uL | KIDNEY_L ([…], time 7 day): 1.2 g | KIDNEY_R ([…], time 7 day): 1.1 g | KIDNEY_TOTAL ([…], time 7 day): 2.3 g | KIDNEY_L ([…], time 14 day): 1.2 g | KIDNEY_R ([…], time 14 day): 1.3 g | KIDNEY_TOTAL ([…], time 14 day): 2.5 g | KIDNEY_L ([…], time 28 day): 1.4 g | KIDNEY_R ([…], time 28 day): 1.4 g | KIDNEY_TOTAL ([…], time 28 day): 2.9 g | LIVER ([…], time 7 day): 12.2 g | LIVER ([…], time 14 day): 13.6 g | LIVER ([…], time 28 day): 15.6 g | A/G ([…], time 7 day): 0.9 | ALP ([…], time 7 day): 1362.2 IU/L | ALT ([…], time 7 day): 38.6 IU/L | AST ([…], time 7 day): 61 IU/L | BUN ([…], time 7 day): 15.6 mg/dL | CRE ([…], time 7 day): 0.2 mg/dL | Ca ([…], time 7 day): 10.8 mg/dL | Cl ([…], time 7 day): 103.8 meq/L | DBIL ([…], time 7 day): 0.012 mg/dL | GLC ([…], time 7 day): 189.4 mg/dL | IP ([…], time 7 day): 7.2 mg/dL | K ([…], time 7 day): 4 meq/L | LDH ([…], time 7 day): 67.4 IU/L | Na ([…], time 7 day): 141.6 meq/L | PL ([…], time 7 day): 164.8 mg/dL | RALB ([…], time 7 day): 2.7 g/dL | TBIL ([…], time 7 day): 0.034 mg/dL | TC ([…], time 7 day): 85.4 mg/dL | TG ([…], time 7 day): 113.4 mg/dL | TP ([…], time 7 day): 5.7 g/dL | gamma-GTP ([…], time 7 day): 1 IU/L | A/G ([…], time 14 day): 0.9 | ALP ([…], time 14 day): 1395 IU/L | ALT ([…], time 14 day): 41.8 IU/L | AST ([…], time 14 day): 64.2 IU/L | BUN ([…], time 14 day): 15.4 mg/dL | CRE ([…], time 14 day): 0.2 mg/dL | Ca ([…], time 14 day): 10.9 mg/dL | Cl ([…], time 14 day): 105 meq/L | DBIL ([…], time 14 day): 0.008 mg/dL | GLC ([…], time 14 day): 176.4 mg/dL | IP ([…], time 14 day): 7.2 mg/dL | K ([…], time 14 day): 3.9 meq/L | LDH ([…], time 14 day): 100.2 IU/L | Na ([…], time 14 day): 142.8 meq/L | PL ([…], time 14 day): 160.2 mg/dL | RALB ([…], time 14 day): 2.8 g/dL | TBIL ([…], time 14 day): 0.04 mg/dL | TC ([…], time 14 day): 80.4 mg/dL | TG ([…], time 14 day): 119.2 mg/dL | TP ([…], time 14 day): 6 g/dL | gamma-GTP ([…], time 14 day): 1 IU/L | A/G ([…], time 28 day): 0.9 | ALP ([…], time 28 day): 911.4 IU/L | ALT ([…], time 28 day): 33.8 IU/L | AST ([…], time 28 day): 56.8 IU/L | BUN ([…], time 28 day): 14.8 mg/dL | CRE ([…], time 28 day): 0.2 mg/dL | Ca ([…], time 28 day): 10.8 mg/dL | Cl ([…], time 28 day): 105.6 meq/L | DBIL ([…], time 28 day): 0.008 mg/dL | GLC ([…], time 28 day): 186.8 mg/dL | IP ([…], time 28 day): 6.2 mg/dL | K ([…], time 28 day): 3.6 meq/L | LDH ([…], time 28 day): 60.6 IU/L | Na ([…], time 28 day): 144 meq/L | PL ([…], time 28 day): 147 mg/dL | RALB ([…], time 28 day): 2.8 g/dL | TBIL ([…], time 28 day): 0.072 mg/dL | TC ([…], time 28 day): 77 mg/dL | TG ([…], time 28 day): 87.8 mg/dL | TP ([…], time 28 day): 6.1 g/dL | gamma-GTP ([…], time 28 day): 1 IU/L
